# Measurements from US7790762B2, “Compounds and methods for thiol-containing compound efflux and cancer treatment” (National Jewish Health, priority 2002, dated 2010).
# Where two headings read alike, the source gives them in different places. Marks after values point to notes of the source that are not given here.
# Columns and labels:
# [1] = system: A549 cells; test: Intracellular GSH levels by HPLC-EC in A549 cells; format: cell-based, human; conditions: for activity at 25 µM: Homo sapiens
# Method: (§1) Cell lines and culture conditions. Human lung epithelial cancer (A549), human leukemia HL-60 and human prostate (PC-3) tumor cells were purchased from ATCC (Manassas, Va.). A549 and PC-3 cells were grown in Ham's F12 medium (F12) and Kaighn's modification of Ham's F12 medium (F12K) with 2 mM L-glutamine (ATCC), respectively, supplemented with 10% fetal bovine serum (FBS) and 5% pen/strep (10,000 unit, Cellgro). HL-60 cells were grown in Iscove's modified Dulbecco's medium with 4 mM L-glutamine (ATCC) supplemented with 20% FBS and 5% pen/strep. Cell were grown in T-75 flask at 37° C. and 5% CO2 air atmosphere and in 24-well plates for GSH levels and LDH release measurements.
# (§2) Intracellular levels of GSH. Intracellular GSH levels can be determined by HPLC-EC. Cultured cells from 24-well plates were washed once with 1 ml of PBS and then re-suspended in 0.5 ml of distilled water with 40 μM of digitonin (2 mM stock solution in DMSO) for 30 min at room temperature. Then, 50 μl of 10% meta-phosphoric acid were added (1% final concentration), the samples were sonicated for 2 min, centrifuged at 20,000 g for 10 min, and 0.2 ml of supernatant placed in vials for HPLC analysis. […] The flow rate was […]. The retention time for GSH in these conditions was 7.5 min. The HPLC instrument was from ESA, Inc. (Chelmsford, Mass.), equipped with an autosampler (model 540) and a Coul array detector (model 5600A). The potential applied was +0.75 V vs. H/Pd electrode, and the injection volume 5 μl.
# [2] = system: HL-60 cells; test: Intracellular GSH levels by HPLC-EC in HL-60 cells; format: cell-based, human; conditions: for activity at 25 µM: HL-60, 25 μM
# Method: as §1, §2
# [3] = system: PC-3 cells; test: Intracellular GSH levels by HPLC-EC in PC-3 cells; format: cell-based, human; conditions: for activity at 25 µM: Homo sapiens, read-out: Int. GSH % con.
# Method: as §1, §2
# [4] = system: A549 cells; test: Cytotoxicity as LDH release in A549 cells; format: cell-based, human
# Method: as §1
# (§3) Assessment of cytotoxicity. In one exemplary method, membrane integrity of A549, HL-60 and PC-3 cells was used as an index of drug-induced cytotoxicity, and was assessed by monitoring the release of cytosolic lactate dehydrogenase (LDH). LDH activity was measured in the culture medium and cell lysates (50 mM HEPES, Triton X-100 0.5%, pH 7) using a plate reader format as previously described (41). Briefly, 5 μl of cell culture supernatant and lysates were incubated with 0.24 mM NADH in a Tris/NaCl pH 7.2 buffer in 96-well plates for 5 min at 25° C. The reaction was started by the addition of 9.8 mM pyruvate and the consumption of NADH followed at 340 nm for 5 min at 30° C. Percent LDH release was calculated by the following: (supernatant LDH/supernatant LDH+lysate LDH)×100.
# [5] = system: HL-60 cells; test: Cytotoxicity as LDH release in HL-60 cells; format: cell-based, human
# Method: as §1, §3
# [6] = system: PC-3 cells; test: Cytotoxicity as LDH release in PC-3 cells; format: cell-based, human
# Method: as §1, §3
# [7] = system: A549 cells; test: Extracellular GSH in culture supernatants of A549 cells (HPLC-FD, mBBr); format: cell-based, human; conditions: 25 μM, 2 hours of treatment (FIG. 19D)
# Method: Extracellular levels of GSH. Extracellular GSH in the culture media supernatants of A549, HL-60 and PC-3 cells were measured by an HPLC-FD method of GSH analysis after derivatization with monobromobimane (mBBr). […] The mixture was incubated in dark at room temperature for 30 min, and the reaction was stopped by addition of 10 μl of 70% perchloric acid. The samples were centrifuged at 16,000 g for 10 min and 0.18 ml of supernatant placed in vials for HPLC analysis. The HPLC column used was Synergi 4u Hydro-RP 80A (C18) (150×4.6 mm) from Phenomenex (Torrance, Calif.) and the mobile phase a mixture of 1% acetic acid in H2O (pH adjusted to 4.25 using NH4OH) with 7% acetonitrile. The flow rate was 1 ml·min^−1 and the injection volume 1 μl. The detector excitation and emission wavelengths were […], respectively. The retention time for the GSH derivative was 9.5 min.
# [8] = system: epithelial cells; test: Effects of compounds on extracellular GSH transport (Table 3); format: cell-based
# [9] = system: epithelial cells; test: Extracellular GSH transport, Transwell Studies (Table 3); format: cell-based
# [10] = system: HL-60 cells; test: Cellular superoxide by flow cytometry with hydroethidine in HL-60 cells; format: cell-based, human
# Method: Flow cytometry. In one exemplary method, cellular superoxide (O2^−) was measured by flow cytometry analysis using hydroethidine (HE) (30). Untreated and treated HL-60 cells (approximately 10^6) were exposed to HE (1 μM from 1 mM stock solutions in DMSO) for 30 min, then were centrifuged at 3,500 g for 15 min, and washed once with 1 ml ice-cold PBS. Cells were re-suspended in 0.5 ml ice-cold PBS, and HE oxidation product, i.e., ethidium bromide (EB), analyzed within 30 min using the red channel (PE) of a FACSCalibur flow cytometer from Becton Dickinson Biosciences (San Jose, Calif.). The total number of cell counts was 25,000.
# [11] = Epithelial lining fluid (ELF) GSH concentration in dexamethasone treated mice; format: in vivo, Wild type (C57/B6) mice; conditions: 1 mg/kg intraperitoneal daily for two days, BALF at 48 hours; mean±standard error
# Method: FIG. 17 Dexamethasone-Induced Changes in Epithelial Lining Fluid (ELF) Glutathione (GSH) Concentrations. Wild type (C57/B6) mice were given a 1 mg/kg dexamethasone (DEX) injection (intraperitoneal) daily for two days. Bronchoalveolar lavage fluid (BALF) was obtained at 48 hours after the first initial dose and GSH concentrations determined. BALF was obtained through a tracheal canula with a single 2.0 mL aliquots of phosphate-buffered saline (pH 7.4) that was instilled into the lung and withdrawn only once. The BALF was centrifuged at 4000×g to remove cells (i.e., alveolar macrophages). The cell-free BALF was acidified with metaphosphoric acid to a final concentration of 1% metaphosphoric acid and centrifuged at 20,000×g to pellet the precipitated proteins. GSH concentrations were determined by HPLC coupled with electrochemical detection. ELF concentrations of GSH were calculated from BALF concentrations multiplied by a dilution factor derived from the difference in serum and BALF urea concentrations. […] Data are shown as the mean±standard error for n≧4 with significance attained at p≦0.05.
# Serum and BALF Urea Concentrations. […] ELF concentrations are then calculated by multiplying the BALF concentrations by the dilution factor. Urea concentrations in the samples are determined using a commercially available reagent (Sigma Diagnostics 66-20; St. Louis, Mo.).
# [12] = system: P-gp; conditions: single dose; renal basement membrane, liver and intestine; cited from earlier work
# [13] = A549, 25 μM, 2 h, read-out: Intracellular GSH levels, % compared to control
# [14] = A549, 25 μM, 4 h, read-out: Intracellular GSH levels, % compared to control
# [15] = A549, 25 μM, 24 hours treatment, read-out: Int. GSH % con.
# [16] = Homo sapiens, 24 hours treatment, read-out: Int. GSH % con.
# [17] = PC-3, 25 μM, 24 hours treatment
# [18] = Homo sapiens, A549, 75 μM, 48 hours treatment, read-out: LDH rel. % con.
# [19] = Homo sapiens, HL-60, 50 μM, 48 hours treatment, read-out: LDH rel. % con.
# [20] = Homo sapiens, PC-3, 50 μM, 48 hours treatment, read-out: LDH rel. % con.
smiles,measurement,setting,value
"O=C(/C=C/c1ccccc1)c1ccccc1O [2′-HC, 2′-hydroxychalcone]",activity at 25 µM,[1]; [13],< 5%
same,activity at 25 µM,[1]; [14],< 5%
same,activity at 25 µM,[1]; [15],< 5%
same,activity at 25 µM,[2]; [16],< 5%
same,activity at 25 µM,[3]; [17],93%
same,"LDH release, % of control at 75 µM",[4]; [18],515%
same,"LDH release, % of control at 50 µM",[5]; [19],320%
same,"LDH release, % of control at 25 µM","[6]; Homo sapiens, PC-3, 25 μM, 48 hours treatment, read-out: LDH rel. % con.",227%
same,extracellular GSH levels,[7],increased levels of GSH in the supernatants
COc1ccc(-c2coc3cc(O)cc(O)c3c2=O)cc1 [Biochanin A],% Increase Over Control (extracellular GSH),[8]; 50 μM,133 ^c %
same,% Increase Over Control (extracellular GSH),[9]; 50 μM,174 ^a %
same,"Intracellular GSH levels, % compared to control","[1]; A549, 25 μM, 4 h",36.8 ± 0.9%
same,Int. GSH % con.,"[1]; A549, 25 μM, 24 hours treatment",<5 % con.
same,Int. GSH % con.,"[2]; HL-60, 75 μM, 24 hours treatment",20 % con.
same,Int. GSH % con.,[3]; [17],81 % con.
same,LDH rel. % con.,"[4]; A549, 75 μM, 48 hours treatment",230 % con.
same,LDH rel. % con.,"[5]; HL-60, 50 μM, 48 hours treatment",133 % con.
same,LDH rel. % con.,"[6]; PC-3, 50 μM, 48 hours treatment",127 % con.
O=C(/C=C/c1ccccc1)c1ccccc1 [Chalcone],activity at 25 µM,[1]; [13],48.5 ± 2.1%
same,activity at 25 µM,[1]; [15],< 5%
same,activity at 25 µM,[2]; [16],100%
same,activity at 25 µM,[3]; [17],119%
same,"LDH release, % of control at 75 µM",[4]; [18],150%
same,"LDH release, % of control at 50 µM",[5]; [19],236%
same,"LDH release, % of control at 50 µM",[6]; [20],229%
same,extracellular GSH levels,[7],increased levels of GSH in the supernatants
"O=c1cc(-c2ccccc2)oc2cc(O)cc(O)c12 [Chrysin, 5,7 dihydroxyflavone]",effect on intracellular GSH (words),[1]; A549 cells,very potent inducer of intracellular GSH depletion
same,depletion of intracellular GSH,"[1]; A549 cells, 25 μM, 2 hours of treatment",50%
same,effect on intracellular GSH (words),"[1]; A549 cells, listed as chrysin",one active flavone-like structure for inducing GSH depletion
same,activity at 25 µM,[1]; [13],47.2 ± 4%
same,activity at 25 µM,[1]; [14],5.2 ± 0.5%
same,activity at 25 µM,[1]; [15],< 5%
same,effect on intracellular GSH (words),[2]; HL-60 cells,one active flavone-like structure for inducing GSH depletion
same,intracellular GSH levels in presence of curcumin,[2]; HL-60 cells (FIG. 20B),induced GSH depletion in presence of curcumin
same,depletion of intracellular GSH,"[2]; HL-60 cells, 50 μM, 24 hours",50%
same,activity at 50 µM,"[2]; Homo sapiens, HL-60, 50 μM, 24 hours treatment, read-out: Int. GSH % con.",40%
same,activity at 25 µM,[3]; [17],51%
same,"intracellular GSH, combination with curcumin",[3]; PC-3 cells (data not shown),resulted in GSH depletion
same,depletion of intracellular GSH,"[3]; PC-3 cells, 25 μM, 24 hours",50%
same,effect on the toxicity of etoposide,"[4]; A549 cells, 48 hours, etoposide (10 µM)",failed to potentiate etoposide's toxicity
same,toxicity,"[4]; A549 cells, after 48 hours of treatment",relatively low toxicity
same,"LDH release, % of control at 75 µM",[4]; [18],225%
same,toxicity,"[5]; HL-60 cells, 25 μM (FIG. 20A)",not toxic
same,"effect on the toxicity of curcumin (25 μM), LDH release","[5]; HL-60 cells, 48 hours, compound 25 μM (FIG. 20A)",potentiated the toxicity of curcumin
same,"LDH release, % of control at 50 µM",[5]; [19],195%
same,"LDH release, % of control at 50 µM",[6]; [20],132%
same,"effect on curcumin-induced toxicity, LDH release","[6]; PC-3 cells, 48 hours (FIG. 20C)",potentiated
same,"effect on the toxicities of rotenone (20 μM), 2-ME (50 μM) and etoposide (40 μM)","[6]; PC-3 cells, 48 hours, compound 10-20 μM",potentiated
same,O2^− levels on adding compound to curcumin treatment,[10]; HL-60 cells (FIG. 21B),"no increase of O2^− levels was observed, but rather a decrease after 4 hours"
same,O2^− levels,"[10]; HL-60 cells, 25 μM (FIG. 21B)",little change in O2^− levels
"C[C@@H]1C[C@H]2[C@@H]3CCC4=CC(=O)C=C[C@]4(C)[C@@]3(F)[C@@H](O)C[C@]2(C)[C@@]1(O)C(=O)CO [Dexamethasone, 9-fluoro-11 b,17,21-trihydroxy-16a-methylpregna-1,4-diene-3,20-dione, reference compound]",activation at 50 µM,"[8]; Epithelial cell, 50 μM, read-out: % Increase Over Control (extracellular GSH)",178%
same,ELF concentrations of GSH,[11],75.3 ± 12.0 µM
"COc1ccc2c(c1)c(CC(=O)O)c(C)n2C(=O)c1ccc(Cl)cc1 [Indomethacin, 1-(4-chlorobenzoyl)-5-methoxy-2-methyl-1H-indole-3-acetic acid, reference compound]",activation at 100 µM,"[8]; Epithelial cell, 100 μM, read-out: % Increase Over Control (extracellular GSH)",235%
same,% Increase Over Control (extracellular GSH),[9]; 100 μM,136 ^a %
same,activity at 25 µM,[1]; [13],71.4 ± 2.8%
same,activity at 25 µM,[1]; [14],7.8 ± 1.2%
same,activity at 25 µM,[1]; [15],< 5%
same,activity at 25 µM,[2]; [16],49%
same,activity at 25 µM,[3]; [17],75%
same,"LDH release, % of control at 50 µM","[4]; Homo sapiens, A549, 50 μM, 48 hours treatment, read-out: LDH rel. % con.",251%
same,"LDH release, % of control at 25 µM","[5]; Homo sapiens, HL-60, 25 μM, 48 hours treatment, read-out: LDH rel. % con.",126%
same,"LDH release, % of control at 50 µM",[6]; [20],122%
"N.N.[Cl][Pt][Cl] [cisplatin, cis-dichlorodiammne platinum (II)]",induction of P-gp,[12],200-300 ×
